Measured values published in patent US9982256B2, “Random RNAi libraries, methods of generating same, and screening methods utilizing same” (The Trustees of the University of Pennsylvania, priority 2006, dated 2018).

Legend:
[1] = system: FL5.12 cells; test: Survival of shRNA-infected FL5.12 cells after IL-3 withdrawal (flow cytometry, GFP/PI); type: cell-based, murine; conditions: 15 hours into second IL-3 withdrawal, after 1 round of withdrawal and recovery; 6 independent infections; p<0.0001, Student's t-test
Description: High-titer retrovirus was generated by co-transfecting 293T cells with retroviral vector and pCL-Eco, which encodes both ecotropic envelope and gag-pol proteins, using an Effectene® transfection kit (Qiagen). Culture supernatant was harvested each day from 24-72 hours after transfection and used either to infect FL5.12 cells or frozen at ^−80° C. for future use. 1-2 million cells were seeded in each well of a 24-well plate and were centrifuged at 2500×g for 1 hour with viral supernatant, 5 μg/ml polybrene, and 0.3 ng/ml interleukin-3 (IL-3). Cells were stored in the incubator for 2 hours. Viral supernatant was replaced with fresh batches, and the spin/incubation process was repeated 2 more times. Infection efficiency was determined 24-48 hours later by flow cytometric analysis of GFP expression.
The murine pro-B cell line FL5.12 is IL-3 dependent; 100% of the cells die by apoptosis after IL-3 withdrawal for 3 days, and >90% of cells can be rescued by expression of Bcl-xL59. […]
10 shRNA-encoding sequences (“books”) were retrieved by PCR, cloned back into pSiren, and sequenced. […] After 15 hours, cells were analyzed by flow cytometry, identifying infected cells by GFP fluorescence and dead cells by propidium iodide (PI) staining. […]

[2] = system: caspase 3; test: Caspase 3 enzymatic activity in book-infected FL5.12 cells; type: cell-based, murine; conditions: correlated with the improved survival after IL-3 withdrawal
Description: (§1) 10 shRNA-encoding sequences (“books”) were retrieved by PCR, cloned back into pSiren, and sequenced. Of the 10, two were the same (books 1 and 7), indicating selective enrichment. FL5.12 cells were infected with 3 of the putative shRNA molecules separately (books 1, 3, and 8), each one assayed in 6 independent infections. The cells were subjected to 1 round of IL-3 withdrawal and recovery and subjected to a second withdrawal from IL-3. After 15 hours, cells were analyzed by flow cytometry, identifying infected cells by GFP fluorescence and dead cells by propidium iodide (PI) staining. Fractions of GFP-positive (infected), PI-negative (live) cells relative to the start of the experiment (just prior to the first IL-3 withdrawal) are depicted in FIG. 16. […] The improved survival with books 1 and 3 correlated with a decrease in caspase 3 enzymatic activity. Because the cycling of IL-3 withdrawal included a recovery segment, books 1 and 3 were tested for effects on growth rate and none were seen. The stem sequences of books 1 and 3 are as follows: […]

[3] = system: FL5.12 cells; test: Growth rate of book-infected FL5.12 cells; type: cell-based, murine
Description: as §1

[4] = system: normal control fibroblasts; test: Glutathione depletion with BSO: viability of normal control fibroblasts; type: cell-based; conditions: 1 mM BSO in media with 0.3 mg/ml fully saturated human transferrin; 48 hours
Description: (§2) Primary FRDA fibroblasts are far more sensitive to oxidative stress than normal control fibroblasts. (Jauslin et al. (Hum Molec Gen 11: 3055, 2002) used L-buthionine (S,R)-sulfoximine (BSO) to block the rate-limiting enzyme in glutathione synthesis, and found a concentration (0.05 mM) at which virtually all primary FRDA fibroblasts lose viability, but more than 90% of normal control fibroblasts retain viability.)
(§3) […] […] By washing the cells, adding back their normal medium, and looking for colony formation, the minimum conditions under which 100% of the cells die were confirmed.

[5] = system: primary FRDA fibroblasts; conditions: 0.05 mM BSO; Jauslin et al. 2002; cited from earlier work
[6] = system: primary FRDA fibroblasts; test: Glutathione depletion with BSO: viability of primary FRDA fibroblasts; type: cell-based; conditions: 1 mM BSO in media with 0.3 mg/ml fully saturated human transferrin; 48 hours; 6-well plate
Description: as §2, §3

[7] = system: normal control fibroblasts; conditions: 0.05 mM BSO; Jauslin et al. 2002; cited from earlier work
[8] = system: 293T cells; test: Overnight CDDO treatment of 293T cells, to establish an apoptosis assay; type: cell-based, human; conditions: for adherent cells remaining after treatment: then medium without CDDO
Description: 293T cells (a human, embryonic kidney cell line) were treated overnight (16 hours) with 2, 4, 6, and 8 μM of the synthetic triterpenoid, CDDO.

Compound: 5′-GGGTAGCTACATTTGCATATGTGGATATG-3′ (listed as DNA, chemistry not given here) [Book 1, books 1 and 7 were the same]
- survival (GFP-positive, PI-negative cells) relative to random book (ctr153) or vector alone (pSiren) [1]: statistically significant improvement in survival
- caspase 3 enzymatic activity [2]: decrease
- effects on growth rate [3]: none

Compound: 5′-GTGGATCAGTGTGTTATAGCTCGGGCAGG-3′ (listed as DNA, chemistry not given here) [Book 3]
- survival (GFP-positive, PI-negative cells) relative to random book (ctr153) or vector alone (pSiren) [1]: statistically significant improvement in survival
- caspase 3 enzymatic activity [2]: decrease
- effects on growth rate [3]: none

Compound: CCCCS(=N)(=O)CCC(N)C(=O)O [BSO, L-buthionine (S,R)-sulfoximine]
- age- and passage-matched controls remaining viable [4]: majority
- primary FRDA fibroblasts losing viability [5]: virtually all
- viability of FRDA cells [6]: all the cells in a 6-well plate nonviable
- normal control fibroblasts retaining viability [7]: more than 90%

Compound: CC1(C)CC[C@]2(C(=O)O)CC[C@]3(C)[C@H](C(=O)C=C4[C@@]5(C)C=C(C#N)C(=O)C(C)(C)[C@@H]5CC[C@]43C)[C@@H]2C1 [CDDO]
- adherent cells remaining after treatment ([8]; 2 μM CDDO overnight (16 hours)): some adherent cells
- adherent cells remaining after treatment ([8]; 4 μM CDDO overnight (16 hours)): no remaining adherent cells
- adherent cells remaining after treatment ([8]; 6 μM CDDO overnight (16 hours)): no remaining adherent cells
- adherent cells remaining after treatment ([8]; 8 μM CDDO overnight (16 hours)): no remaining adherent cells
- adherent colonies after post-treatment culture ([8]; repeat with 4 μM CDDO, five days of post-treatment culture in medium without CDDO): no adherent colonies were evident
